Data taken from article PMC7802074, “Azanitrile Inhibitors of the SmCB1 Protease Target Are Lethal to Schistosoma mansoni: Structural and Mechanistic Insights into Chemotype Reactivity” (ACS Infectious Diseases, 2020).
Several values for one entry are separate records, joined by “and”; a condition that tells them apart may be missing. Equal values may be shown once. Read-outs that look alike come from different tables or passages of the source.

What was measured:
[1] = biological target: recombinant SmCB1 (Schistosoma mansoni, UniProt Q8MNY2, T185A/T300A); assay: SmCB1 kinetic inhibition assay with fluorogenic substrate Cbz-Phe-Arg-AMC; format: biochemical; conditions: substrate Cbz-Phe-Arg-AMC; for SmCB1 inhibition k2nd (second-order rate constant): slow-binding azadipeptide nitriles
Procedure: Inhibition measurements were performed in triplicates in 96-well microplates (100 μL assay volume) at 37 °C. SmCB1 (20–40 pM) was added to a mixture of the fluorogenic substrate Cbz-Phe-Arg-AMC (20 μM) and an inhibitor (0–100 μM) in 0.1 M sodium acetate, pH 5.5, containing 2.5 mM dithiothreitol and 0.1% PEG 6000. The substrate hydrolysis was monitored in an Infinite M1000 microplate reader (Tecan, Männedorf, Switzerland) at excitation and emission wavelengths of 360 and 465 nm, respectively, for up to 15 and 60 min for fast- and slow-binding inhibitors, respectively. […] For slow-binding inhibitors, an observed first-order rate constant kobs was calculated at each inhibitor concentration by fitting the progress curve to the equation P = vst + (vi – vs)(1 – […])/kobs + d, where P is the product formation, vs is the steady-state velocity, t is the reaction time, vi is the initial velocity, and d is the offset. The inhibition constant Ki′ was determined by nonlinear regression using the equation vs/v0 = 1/(1 + [I]/Ki′). The true inhibition constants Ki were then calculated using the equation Ki = Ki′/(1 + [S]/Km), where [S] is the substrate concentration and Km is the Michaelis constant. The apparent second-order rate constant k2nd′ was determined by fitting to the linear equation kobs = k2nd′[I] + koff, where koff is the first-order rate constants for the dissociation of the enzyme–inhibitor complex and the true constant k2nd was calculated by the correction k2nd = k2nd′(1 + [S]/Km). […] In none of the assay systems did the final concentration of DMSO exceed 1.5%.

[2] = test system: S. mansoni newly transformed schistosomula (NTS); assay: Schistosome phenotypic assay; format: cell-based, Schistosoma mansoni; conditions: for Descriptors Day 1 (phenotypic changes) / Descriptors Day 2 (phenotypic changes) / Descriptors Day 3 (phenotypic changes) / Descriptors Day 4 (phenotypic changes): 10 µM inhibitor; for Severity score Day 1 / Severity score Day 2 / Severity score Day 3 / Severity score Day 4: 10 μM inhibitor, scale 0 (no effect) to 4 (severe); for Severity score Day 1: 24 h; for Severity score Day 2: 48 h
Procedure: Newly transformed schistosomula (NTS) of S. mansoni were prepared by mechanically transforming infective larvae (cercariae) as described previously.[70],[71] NTS (200–300 parasites) were incubated in 200 μL of Basch Medium 169 containing 5% FBS, 100 U mL^–1 penicillin, and 100 μg mL^–1 streptomycin at 5% CO2 and 37 °C.[70],[72],[73] Inhibitors were added at the final concentration of 10 μM,[20],[69] and changes in phenotypes were observed every 24 h for up to 4 days. A constrained nomenclature of “descriptors” is used to record the multiple and dynamic changes in movement, shape, and translucence of which the schistosome parasite is capable (Table S3).[70] These descriptors are then converted into an ordinal “severity score” system from 0 (no effect) to 4 (maximum effect), which allows for the relative comparison of compound effects, as described.[74],[75] Images of NTS were captured using a Zeiss Axiovert 40 C inverted microscope (10× objective) and a Zeiss AxioCam MRc digital camera controlled by AxioVision 40 (v. 4.8.1.0) software.

[3] = SmCB1 inhibition Ki, kinetic activity assay, pH 5.5, 37 °C
[4] = Table S2, carbadipeptide nitriles, read-out: SmCB1 inhibition Ki

Sequence of recombinant SmCB1 (Q8MNY2 87-340 T185A/T300A): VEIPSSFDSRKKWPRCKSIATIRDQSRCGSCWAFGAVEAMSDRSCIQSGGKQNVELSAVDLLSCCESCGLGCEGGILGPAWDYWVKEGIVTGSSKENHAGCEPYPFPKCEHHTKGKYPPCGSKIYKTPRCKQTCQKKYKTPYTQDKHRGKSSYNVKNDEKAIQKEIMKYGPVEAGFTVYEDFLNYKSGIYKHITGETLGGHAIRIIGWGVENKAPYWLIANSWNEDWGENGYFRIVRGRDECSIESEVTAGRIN

Row | SMILES | Ki [1, 3] | Descriptors Day 1 (phenotypic changes) [2] | Descriptors Day 2 (phenotypic changes) [2] | Severity score Day 1 [2] | Severity score Day 2 [2] | Severity score Day 3 [2] | Severity score Day 4 [2] | SmCB1 inhibition k2nd (second-order rate constant) [1] | Descriptors Day 3 (phenotypic changes) [2] | Descriptors Day 4 (phenotypic changes) [2] | Ki [1, 4]
1 | C[C@H](NC(=O)OCc1ccccc1)C(=O)N(C)N(C)C#N [Compound 15a] | 0.714 ± 0.058 µM | R, Unc | Deg | 2 | 4 | 4 | 4 |  |  |  | 
2 | Cc1nc(-c2ccc(CNC(=O)N[C@@H](CC(C)C)C(=O)N(C)N(C)C#N)cc2)no1 [Compound 16a] | 0.03 ± 0.0041 µM |  | R, Unc | 0 | 2 | 3 | 4 | 9.2 ± 0.8 10^3 M^-1 s^-1 | R, Unc, Dark | Deg | 
3 | CC(C)C[C@H](NC(=O)NCc1ccc(-c2noc(-c3cccs3)n2)cc1)C(=O)N(C)N(C)C#N [Compound 17a] | 0.0583 ± 0.0028 µM |  |  | 0 and 0/0 | 0 and 0/0 | 0 | 0 | 3.1 ± 0.6 10^3 M^-1 s^-1 |  |  | 
4 | CC(C)C[C@H](NC(=O)Nc1ccccc1)C(=O)N(C)N(C)C#N [Compound 18a] | 0.112 ± 0.011 µM | R, Unc | Deg | 2 | 4 | 4 | 4 |  |  |  | 
5 | CCCC[C@H](NC(=O)OC(C)(C)C)C(=O)NCC#N [Gü967] |  |  |  | 0 | 0 | 0 | 0 |  |  |  | 0.87 ± 0.1 µM
6 | CC(C)(C)OC(=O)N[C@@H](Cc1cccs1)C(=O)NCC#N [Gü969] |  |  |  | 0 | 0 | 0 | 0 |  |  |  | 0.62 ± 0.05 µM
7 | CC(C)(C)OC(=O)N[C@@H](Cc1ccc(-c2ccccc2)cc1)C(=O)NCC#N [Gü1124] |  |  |  | 0 | 0 | 0 | 0 |  |  |  | 0.27 ± 0.05 µM
8 | N#CCNC(=O)[C@H](Cc1ccccc1)NC(=O)c1ccc(-c2ccccc2)cc1 [Gü1136] |  |  |  | 0 | 0 | 0 | 0 |  |  |  | 0.053 ± 0.012 µM
9 | N#CCNC(=O)[C@H](Cc1ccc(O)cc1)NC(=O)OCc1ccccc1 [Gü2031] |  |  |  | 0 | 0 | 0 | 0 |  |  |  | 0.76 ± 0.22 µM
10 | CC(C)C[C@H](NC(=O)c1ccc(-c2ccccc2)cc1)C(=O)NCC#N [Gü2420] |  |  | R, Dark | 0 | 2 | 2 | 2 |  | R, Dark | R, Dark | 0.056 ± 0.013 µM
11 | N#CCNC(=O)[C@H](CC1CCCCC1)NC(=O)c1ccc(-c2noc(-c3cccs3)n2)cc1 [Gü2421] |  | R, S | R, S | 2 | 2 | 3 | 3 |  | R, S, Dark | R, S, Dark | 0.012 ± 0.004 µM
